Measurements published in US7157487B2, “Vla-4 inhibitors” (Daiichi Pharmaceutical Co., Ltd., priority 2000, dated 2007).

Target: T1, integrins haα4 and β1 (VLA-4) expressed on CHO cells (Homo sapiens, UniProt P05556+P13612)
T1 construct: expressed in transfected cells; host or cells: CHO cells
Assay: In vitro Evaluation Test (1): binding of Eu3+-hVCAM-1 D1D7-IgG to CHO cells expressing integrins α4 and β1
Details: inhibition of Eu3+-hVCAM-1 D1D7-IgG binding to CHO cells expressing α4β1; Ki calculated from IC50
Method: CHO cells forcedly expressed by the transduction of integrins haα4 and β1 were seeded in a Coster 3599 plate (3×10^4 cells/100 μl/well) and they were cultured for 2 days. After the medium was washed with buffer A* twice, 50 μl/well of Eu^3+-hVCAM-1 D1D7-IgG diluted to […] with an assay buffer ** was added. To the resulting well was added 50 μl/well of a test compound diluted with 2% DMS0-assay buffer (in the presence or absence of 6% human serum albumin) (to a well subjected to Scatchard analysis was added a solution diluted in another manner). After stirring for 5 minutes on a plate mixer, the plate was allowed to stand at room temperature for 1 hour. Then, the plate was washed four times with the buffer A and added with 100 μl/well of an enhancement reagent (DELFIA). The plate was shaken for 5 minutes on a plate mixer, followed by measurement of fluorescence intensity by a time-resolved fluorometer (DELFIA Wallac). From the binding ratio available by the following calculation formula: ((FT−FNS)−(FI−FNS))/(FT−FNS)×100, the IC50 (concentration inhibiting 50% of binding of CHO cells with hVCAM-1 D1D7-IgG) of the test compound was determined. In the above formula, FT means the fluorescence intensity of the well free of the test compound, FNS means the fluorescence intensity of the well free of the test compound and anti-hα4 antibody (SG/73), and FI means the fluorescence intensity of the well containing the test compound. The Kd indicating the binding strength and Bmax (maximum binding) were estimated within a range of 0.06 to 20 nM in accordance with the Scatchard analysis method.
The value Ki was calculated based on:
[formula] ((L) means a ligand concentration). (* buffer A: 25 mM HEPES (pH 7.5), 150 mM NaCl, 1 mM Ca^2+, 1 MM Mg^2+, 4 mM Mn^2+; ** assay buffer: 25 mM HEPES (pH 7.5), 150 mM NaCl, 1 mM Ca^2+, 1 mM Mg^2+, 4 mM Mn^2+, 0.1% BSA, 20 μM DTPA, with/without 6% ALBUMIN, HUMAN SERUM (C/N A-1653, SIGMA)) In vitro Evaluation Test (2)

T1 sequence (P13612 34-1032): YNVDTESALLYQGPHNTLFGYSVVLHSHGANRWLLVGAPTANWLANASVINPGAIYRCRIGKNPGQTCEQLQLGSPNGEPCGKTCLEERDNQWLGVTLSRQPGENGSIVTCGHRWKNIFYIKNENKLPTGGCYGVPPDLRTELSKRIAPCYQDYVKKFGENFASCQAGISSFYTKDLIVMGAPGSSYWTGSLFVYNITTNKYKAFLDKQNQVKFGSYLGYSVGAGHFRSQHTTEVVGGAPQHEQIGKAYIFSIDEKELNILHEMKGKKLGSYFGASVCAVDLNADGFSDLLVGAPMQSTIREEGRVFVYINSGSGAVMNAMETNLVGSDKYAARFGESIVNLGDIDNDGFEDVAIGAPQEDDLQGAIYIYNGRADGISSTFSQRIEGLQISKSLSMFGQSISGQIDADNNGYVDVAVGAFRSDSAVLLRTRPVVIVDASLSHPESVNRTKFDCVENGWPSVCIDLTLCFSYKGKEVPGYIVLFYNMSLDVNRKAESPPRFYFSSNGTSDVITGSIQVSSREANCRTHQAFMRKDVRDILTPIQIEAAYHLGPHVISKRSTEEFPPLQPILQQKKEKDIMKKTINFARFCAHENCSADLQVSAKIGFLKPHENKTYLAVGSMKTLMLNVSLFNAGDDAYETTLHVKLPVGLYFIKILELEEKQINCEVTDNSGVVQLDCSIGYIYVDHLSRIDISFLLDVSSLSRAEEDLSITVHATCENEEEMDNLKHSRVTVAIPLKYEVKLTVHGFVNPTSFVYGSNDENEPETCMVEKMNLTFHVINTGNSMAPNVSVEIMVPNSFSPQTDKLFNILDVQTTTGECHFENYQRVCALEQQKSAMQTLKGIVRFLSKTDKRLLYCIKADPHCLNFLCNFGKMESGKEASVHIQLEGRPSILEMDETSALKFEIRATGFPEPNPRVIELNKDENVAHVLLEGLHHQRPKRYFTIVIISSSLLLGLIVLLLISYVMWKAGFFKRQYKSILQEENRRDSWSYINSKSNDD
T1 sequence (P05556 21-798): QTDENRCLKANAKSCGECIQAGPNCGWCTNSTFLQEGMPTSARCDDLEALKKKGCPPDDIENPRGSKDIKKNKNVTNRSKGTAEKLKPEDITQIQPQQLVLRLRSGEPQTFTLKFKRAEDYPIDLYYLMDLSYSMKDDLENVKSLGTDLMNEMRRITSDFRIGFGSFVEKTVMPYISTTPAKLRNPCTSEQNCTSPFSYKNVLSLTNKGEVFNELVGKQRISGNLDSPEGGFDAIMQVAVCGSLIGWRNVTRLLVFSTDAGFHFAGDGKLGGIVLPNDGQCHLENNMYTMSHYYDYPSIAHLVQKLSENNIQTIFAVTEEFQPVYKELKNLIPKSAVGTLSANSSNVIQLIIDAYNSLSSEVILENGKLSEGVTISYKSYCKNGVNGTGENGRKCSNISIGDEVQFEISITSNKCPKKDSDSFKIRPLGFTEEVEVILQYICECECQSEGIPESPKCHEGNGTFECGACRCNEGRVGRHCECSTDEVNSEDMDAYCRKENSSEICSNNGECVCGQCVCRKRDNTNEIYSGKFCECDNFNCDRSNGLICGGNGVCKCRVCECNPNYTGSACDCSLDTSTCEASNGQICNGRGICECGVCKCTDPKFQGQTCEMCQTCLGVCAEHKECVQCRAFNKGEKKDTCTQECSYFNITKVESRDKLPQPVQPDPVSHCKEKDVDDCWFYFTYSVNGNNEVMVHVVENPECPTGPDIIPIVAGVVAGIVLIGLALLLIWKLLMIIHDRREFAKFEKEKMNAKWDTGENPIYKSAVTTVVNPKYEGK

SMILES | Ki
Cc1ccc(F)cc1Nc1nc2ccc(CC(=O)N3CC[C@@H](O[C@H]4CC[C@H](C(=O)O)CC4)C3)c(F)c2o1 [Example 160, 4-(1-(2-(5-Fluoro-2-methylphenylamino)-7-fluoro-6-benzoxazolylacetyl)-(3R)-pyrrolidinyloxy)cyclohexanecarboxylic acid] | 61 nM
Cc1ccccc1Nc1nc2ccc(CC(=O)N3CC[C@@H](Oc4ccc(C(=O)O)cc4)C3)cc2o1 [Example 34, 4-(1-(2-(2-Methylphenylamino)-6-benzoxazolylacetyl)-(3R)-pyrrolidinyloxy)benzoic acid] | 26 nM
O=C(Nc1cc(F)c(CC(=O)N2C[C@@H](F)C[C@H]2CO[C@H]2CC[C@H](C(=O)O)CC2)cc1Cl)c1nccc2ccccc12 [Example 81, trans-4-(1-((5-Chloro-2-fluoro-4-((1-isoquinolinylcarbonyl)amino)phenyl)acetyl)-(4S)-fluoro-(2S)-pyrrolidinylmethoxy)cyclohexanecarboxylic acid] | 25 nM
Cn1cc(C(=O)Nc2cc(F)c(CC(=O)N3C[C@@H](F)C[C@H]3CCN3CCC(C(=O)O)CC3)cc2Cl)c2ccccc21 [Example 109, 1-(2-(1-((5-Chloro-2-fluoro-4-((1-methyl-3-indolylcarbonyl)amino)phenyl)acetyl)-(4S)-fluoro-(2R)-pyrrolidinyl)ethyl)-4-piperidinecarboxylic acid] | 25 nM
COc1cc(CC(=O)N2C[C@@H](F)C[C@H]2COc2ccc(C(=O)O)cc2)cc2oc(Nc3ccccc3C)nc12 [Example 3, 4-((4S)-Fluoro-1-(4-methoxy-2-(2-methylphenylamino)-6-benzoxazolylacetyl)-(2S)-pyrrolidinylmethoxy)benzoic acid] | 40 nM
O=C(Cc1ccc2nc(N3CCc4ccccc43)oc2c1F)N1C[C@@H](F)C[C@H]1CO[C@H]1CC[C@H](C(=O)O)CC1 [Example 105, trans-4-(1-((7-fluoro-2-(1-indolinyl)-6-benzoxazolyl)acetyl)-(4S)-fluoro-(2S)-pyrrolidinylmethoxy)cyclohexanecarboxylic acid] | 42 nM
O=C(Cc1ccc2nc(-c3cccc4ccccc34)oc2c1)N1C[C@@H](F)C[C@H]1CO[C@H]1CC[C@H](C(=O)O)CC1 [Example 95, trans-4-(1-(2-(1-Naphthyl)-6-benzoxazolylacetyl)-(4S)-fluoro-(2S)-pyrrolidinylmethoxy)cyclohexanecarboxylic acid] | 34 nM
Cc1ccccc1Nc1nc2ccc(CC(=O)N3C[C@@H](F)C[C@H]3COc3ccc(C(=O)O)cc3)cc2o1 [Example 2, 4-((4S)-Fluoro-1-(2-(2-methylphenylamino)-6-benzoxazolylacetyl)-(2S)-pyrrolidinylmethoxy)benzoic acid] | 17 nM
Cc1ccccc1Nc1nc2ccc(CC(=O)N3C[C@@H](O)C[C@H]3COc3ccc(C(=O)O)cc3)cc2o1 [Example 8, 4-((2S,4S)-4-Hydroxy-1-(2-(2-methylphenylamino)-6-benzoxazolylacetyl)-2-pyrrolidinylmethoxy)benzoic acid] | 24 nM
Cn1cc(C(=O)Nc2cc(F)c(CC(=O)N3CC[C@@H](CO[C@H]4CC[C@H](C(=O)O)CC4)C3)cc2Cl)c2ccccc21 [Example 163, trans-4-(1-(5-Chloro-2-fluoro-4-(1-methyl-3-indolyl)carbonylaminophenylacetyl)-(3R)-pyrrolidinylmethyloxy)cyclohexanecarboxylic acid] | 39 nM

The remaining compounds from weak to strong by Ki, led by results:

Ki | SMILES
17 nM | Cn1cc(-c2nc3ccc(CC(=O)N4CCC[C@H]4CO[C@H]4CC[C@H](C(=O)O)CC4)cc3o2)c2ccc(F)cc21 [Example 131, trans-4-(1-((2-(6-Fluoro-1-methyl-3-indolyl)-6-benzoxazolyl)acetyl)-(2S)-pyrrolidinylmethoxy)-1-cyclohexanecarboxylic acid]
12 nM | O=C(Nc1ccc(CC(=O)N2C[C@@H](F)C[C@H]2CO[C@H]2CC[C@H](C(=O)O)CC2)cc1Cl)c1nccc2ccccc12 [Example 80, trans-4-(1-((3-Chloro-4-((1-isoquinolinylcarbonyl)amino)phenyl)acetyl)-(4S)-fluoro-(2S)-pyrrolidinylmethoxy)cyclohexanecarboxylic acid]
7.8 nM | Cc1ccccc1Nc1nc2ccc(CC(=O)N3C[C@@H](F)C[C@H]3COc3ccc(C(=O)O)cn3)cc2o1 [Example 18, 6-((4S)-Fluoro-1-(2-(2-methylphenylamino)-6-benzoxazolylacetyl)-(2S)-pyrrolidinylmethoxy)nicotinic acid]
6.5 nM | O=C(Nc1ccc(CC(=O)N2C[C@@H](F)C[C@H]2C(=O)N[C@H]2CC[C@H](C(=O)O)CC2)cc1Cl)c1nccc2ccccc12 [Example 112, trans-4-((1-(3-Chloro-4-((1-isoquinolinylcarbonyl)amino)phenylacetyl)-(4S)-fluoro-(2S)-pyrrolidinyl)carbonylamino)cyclohexanecarboxylic acid]
6.4 nM | O=C(Nc1cc(F)c(CC(=O)N2C[C@@H](F)C[C@H]2CO[C@H]2CC[C@H](C(=O)O)CC2)cc1Cl)c1nsc2ccccc12 [Example 85, trans-4-(1-(5-Chloro-2-fluoro-(4-((3-benzo(d)isothiazolylcarbonyl)amino)phenyl)acetyl)-(4S)-fluoro-(2S)-pyrrolidinylmethoxy)cyclohexanecarboxylic acid]
5.9 nM | Cn1cc(C(=O)Nc2cc(F)c(CC(=O)N3C[C@@H](OC4CCCCC4)C[C@H]3CO[C@H]3CC[C@H](C(=O)O)CC3)cc2Cl)c2ccccc21 [Example 119, trans-4-(1-((5-Chloro-2-fluoro-4-(1-methyl-3-indolylcarbonylamino)phenyl)acetyl)-(4S)-cyclohexyloxy-(2S)-pyrrolidinylmethoxy)cyclohexanecarboxylic acid]
4.8 nM | CO[C@H]1C[C@@H](CO[C@H]2CC[C@H](C(=O)O)CC2)N(C(=O)Cc2ccc3nc(Nc4ccccc4Cl)oc3c2F)C1 (relative stereo) [Example 114, trans-4-(1-((2-(2-chlorophenylamino)-7-fluoro-6-benzoxazolyl)acetyl)-(4S)-methoxy-(2S)-pyrrolidinylmethoxy)cyclohexanecarboxylic acid]
3.8 nM | Cc1ccc(F)cc1Nc1nc2ccc(CC(=O)N3C[C@@H](F)C[C@H]3CO[C@H]3CC[C@H](C(=O)O)CC3)cc2o1 [Example 41, trans-4-(1-((2-(5-Fluoro-2-methylphenylamino)-6-benzoxazolyl)acetyl)-(4S)-fluoro-(2S)-pyrrolidinylmethoxy)cyclohexanecarboxylic acid]
3.5 nM | Cc1ccccc1Nc1nc2ccc(CC(=O)N3CCC[C@H]3COC3CCC(C(=O)O)CC3)cc2o1 (single isomer, unassigned) [22 (Isomer B)]
2.2 nM | O=C(O)c1ccc(OC[C@@H]2C[C@H](F)CN2C(=O)Cc2ccc(NC(=O)c3c[nH]c4ccccc34)c(Cl)c2)cc1 [Example 15, 4-(1-(3-Chloro-4-(3-indolylcarbonylamino)phenylacetyl)-(4S)-fluoro-(2S)-pyrrolidinylmethoxy)benzoic acid]
1.9 nM | Cn1cc(-c2nc3ccc(CC(=O)N4C[C@@H](F)C[C@H]4COC4CCC(C(=O)O)CC4)cc3o2)c2ccccc21 (stereo partly drawn) [Example 40, 4-((4S)-Fluoro-1-(2-(1-methyl-3-indolyl)-6-benzoxazolylacetyl)-(2S)-pyrrolidinylmethoxy)cyclohexanecarboxylic acid]
